Test results published in PMC13095444, “Discovery of RGS2-FBXO44 interaction inhibitors using a cell-based NanoBit assay” (Molecular Pharmacology, 2025).

Legend:
[1] = target: T1, RGS2-FBXO44 interaction (Homo sapiens, UniProt P41220); assay: RGS2-FBXO44 NanoBit assay (HEK-293T RGS2-SmBiT/LgBiT-FBXO44 stable clone #6); format: cell-based
T1 construct: expressed in transfected cells
T1 sequence (P41220 1-211): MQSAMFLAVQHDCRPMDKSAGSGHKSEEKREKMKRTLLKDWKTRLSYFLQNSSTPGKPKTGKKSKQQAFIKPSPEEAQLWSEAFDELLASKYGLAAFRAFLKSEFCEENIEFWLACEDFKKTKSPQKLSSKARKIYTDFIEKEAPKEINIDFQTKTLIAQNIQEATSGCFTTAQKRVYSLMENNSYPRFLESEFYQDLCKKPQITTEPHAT
Description: Nano-Glo Live Cell Substrate (LCS) was diluted 1:50 in HBSS to form a 2× stock, and then, 15 μL was added to each well. Plates were shaken on an orbital shaker at 500 rpm for 5 minutes protected from light and then spun down at 1000 rpm for 30 seconds. Plates were incubated at room temperature for 20 minutes, and then, luminescence was detected on a Synergy Neo2 multimode plate reader.
HEK-293T-RGS2-FBXO44 NanoBit cells were treated for 16–18 hours with compound at 100 μM. This relatively high concentration was chosen because of the challenging nature of our assay (intracellular PPI inhibition). Parental HEK-293T cells were used as a negative control. […] Based on these criteria, 97 compounds were identified as hits from our primary screen (6.1% initial hit rate). To confirm hits, the same assay was repeated in triplicate, which delivered 34 compounds that reached the threshold for inhibition in at least 2 replicates with <25% cell toxicity (Fig. 2C; Supplemental Table 1), thus rendering a final hit rate of 2.1%.
Fresh powders of 20 compounds were purchased and reassayed for their ability to inhibit the RGS2-FBXO44 NanoBit signal, using the same assay paradigm as in the primary screen (Fig. 3; Table 1). […] Nevertheless, all compounds were confirmed to inhibit the RGS2-FBXO44 NanoBit signal at this high concentration.
We next assessed the concentration-dependent effect of our 20 hits. Compounds were assayed at concentrations ranging from 500 to 0.01 μM. NanoBit luminescence (relative luminescence units) was normalized to viability (RFU) and presented as a percentage of untreated cells.

[2] = target: T2, RGS2 (Homo sapiens, UniProt P41220); assay: Cellular thermal shift assay (CETSA), RGS2-HA; format: binding; conditions: 100 μM overnight (16–18 hours); gradient 40–60 °C; vs DMSO
T2 construct: Because both full-length RGS2 and FBXO44 are extremely difficult to express as recombinant proteins, we opted for a cell-based method; expressed in transfected cells; host or cells: HEK-293T, transient transfection
T2 sequence (P41220 1-211): T1 sequence (P41220 1-211)
Description: The cells in 100 mm dishes were harvested by trypsination in reduced serum media and transferred to 15 mL conical tubes. The cells were centrifuged at 300 × g for 3 minutes. Media was removed, and the cell pellet was washed with 10 mL of PBS. The cells were then resuspended in 500 μL of PBS and aliquoted into polymerase chain reaction (PCR) tubes. The cells were then heated in a PCR gradient (40–60 °C) for 3 minutes and then transferred to a 25 °C PCR block for 3 minutes. Following this, cells were immediately flash-frozen using liquid nitrogen. The cells were freeze-thawed 3 times to lyse the cells and then spun down at 20,000 × g for 20 minutes. The supernatant was then added to sample buffer and heated for 5 minutes at 95 °C before SDS-PAGE and western blot analysis.
We next assessed whether the action of compound 10 to inhibit the RGS2-FBXO44 interaction is through direct binding to either protein. […] The cells were lysed and analyzed by western blot to determine melting temperatures (Tm). […] We also assessed the effect of compound 10 on the Tm for RGS4, which is closely related to RGS2 and also subject to proteasomal degradation, however, independent of FBXO44 ([Lee et al, 2005]; [Sjögren et al, 2015]).

CCC1CCCCN1S(=O)(=O)c1cc(Br)ccc1OC (stereo not drawn) [Compound 10]
% Inhibition @ 100 μM of RGS2-FBXO44 NanoBit signal ([1]; 100 μM, 16–18 hours, fresh powder, luminescence normalized to viability, vs nontreated cells): 71.7∗∗∗∗ %
IC50 ([1]; concentrations 500 to 0.01 μM, RLU normalized to viability (RFU), read-out: IC50 (μM), inhibition of RGS2-FBXO44 NanoBit signal): 19.6 µM
Increase in the Tm for RGS2 [2]: 2.4 °C
